Columns and labels:
[1] = system: NCI-H2122; experiment: fitted bottom plateau of viability curve, % of DMSO control; higher = less maximal inhibition; extreme values may be limits of the assay
Protocol: (§1)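 CellTiter-Glo proliferation assay in KRAS G12C mutant NCI-H2122 (72 h), SW837 (144 h) and NCI-H358 cells in 384-well plates. Monotherapy dose response was fitted with a four-parameter curve after normalisation to DMSO controls (% of control, PoC). IC50 is the relative IC50, averaged over replicates. Bottom is the fitted lower plateau in %PoC; Max.Conc. is the top dose tested.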

[2] = system: SW837; experiment: as above
Protocol: as §1

Row | Structure (SMILES) | fitted bottom plateau of viability curve [1] | fitted bottom plateau of viability curve [2]
1 | CC(C)(C(=O)NCC(F)(F)C(F)(F)F)C(=O)N[C@@H]1C(=O)Nc2ccccc2-c2ccccc21 (top concentration tested 9999.9 nM) | 77.8% | 98.6%
2 | NC(=O)c1ccc(-c2nc(-c3ccccn3)c(-c3ccc4c(c3)OCO4)[nH]2)cc1 (top concentration tested 9999.9 nM) | 96.2% | 96.5%
3 | c1ccc(-c2nn3c(c2-c2ccnc4cc(OCCN5CCOCC5)ccc24)CCC3)nc1 (top concentration tested 9999.9 nM) | 78.1% | 90.3%
4 | CN(C)CCCC(=O)Nc1n[nH]c2nnc(-c3ccccc3)cc12 (top concentration tested 10000 nM) | 76.1% | 85.9%
5 | COc1ccc(Cn2ccc3ccc(C(=O)NO)cc32)cc1 (top concentration tested 10000 nM) | 67.3% | 99.9%
6 | On1ncc2cc(CCc3nn[nH]n3)ccc21 (top concentration tested 10000 nM) | 73.1% | 88.1%
7 | Cc1cc(Nc2nc(N[C@@H](C)c3ncc(F)cn3)ncc2Cl)[nH]n1 [AZD-1480] (top concentration tested 10000 nM) | 67% | 87.9%
8 | NC(=O)Nc1cc(-c2cccc(F)c2)sc1C(=O)N[C@H]1CCCNC1 [AZD-7762] (top concentration tested 99.882 nM) | 62.8% | 89.7%
9 | Cc1ncc([N+](=O)[O-])n1CCOC(=O)NC(Nc1ncccn1)C(Cl)(Cl)Cl (configuration not stated) [Apcin] (top concentration tested 10000 nM) | 83.2% | 95.3%
10 | CCN1CCN(c2ccc(Nc3cc(N(C)C(=O)Nc4c(Cl)c(OC)cc(OC)c4Cl)ncn3)cc2)CC1 [BGJ398] (top concentration tested 1000 nM) | 78.2% | 90.4%
11 | O=C(Cc1ccccc1)Nc1nnc(CCSCCc2nnc(NC(=O)Cc3ccccc3)s2)s1 [BPTES] (top concentration tested 10000 nM) | 56.3% | 90.2%
12 | Nc1nc(Nc2ccc3c(c2)CC[C@@H](N2CCCC2)CC3)nn1-c1cc2c(nn1)-c1ccccc1CCC2 [Bemcentinib] (top concentration tested 1000.1 nM) | 70.6% | 84.4%
13 | C=C(c1ccc(C(=O)O)cc1)c1cc2c(cc1C)C(C)(C)CCC2(C)C [Bexarotene] (top concentration tested 10000 nM) | 89.9% | 96.9%
14 | CC(O)(CS(=O)(=O)c1ccc(F)cc1)C(=O)Nc1ccc(C#N)c(C(F)(F)F)c1 (configuration not stated) [Bicalutamide] (top concentration tested 10000 nM) | 71.7% | 77.3%
15 | O=C(O)CCCCC(CCSCc1ccccc1)SCc1ccccc1 (configuration not stated) [CPI-613] (top concentration tested 10000 nM) | 93.6% | 89.5%
16 | CCCCCOC(=O)Nc1nc(=O)n([C@@H]2O[C@H](C)[C@@H](O)[C@H]2O)cc1F [Capecitabin] (top concentration tested 50000 nM) | 75.7% | 101%

Row | Structure (SMILES) | fitted bottom plateau of viability curve [1] | fitted bottom plateau of viability curve [2]
17 | C[C@H](CS)C(=O)N1CCC[C@H]1C(=O)O [Captopril] (top concentration tested 1000 nM) | 65.1% | 91.7%
18 | O=C(O)C1(C(=O)O)CCC1.[NH2-].[NH2-].[Pt+2] [Carboplatin] (top concentration tested 10000 nM) | 63.4% | 88.3%
19 | COc1cc2c(Oc3ccc4[nH]c(C)cc4c3F)ncnc2cc1OCCCN1CCCC1 [Cediranib] (top concentration tested 100.11 nM) | 70% | 90.6%
20 | N.N.[Cl][Pt][Cl] [Cisplatin] (top concentration tested 10000 nM) | 75.2% | 88.2%
21 | CC(C)(C)c1nc(-c2cccc(NS(=O)(=O)c3c(F)cccc3F)c2F)c(-c2ccnc(N)n2)s1 [Dabrafenib] (top concentration tested 1000.1 nM) | 73.8% | 93.1%
22 | C[C@@H]1C[C@H]2[C@@H]3CCC4=CC(=O)C=C[C@]4(C)[C@@]3(F)[C@@H](O)C[C@]2(C)[C@@]1(O)C(=O)CO [Dexamethasone] (top concentration tested 10000 nM) | 58.2% | 82%
23 | CNC(=O)c1ccc(N2C(=S)N(c3ccc(C#N)c(C(F)(F)F)c3)C(=O)C2(C)C)cc1F [Enzalutamide] (top concentration tested 10000 nM) | 83.9% | 93.1%
24 | CO[C@H]1C[C@@H]2CC[C@@H](C)[C@@](O)(O2)C(=O)C(=O)N2CCCC[C@H]2C(=O)O[C@H]([C@H](C)C[C@@H]2CC[C@@H](OCCO)[C@H](OC)C2)CC(=O)[C@H](C)/C=C(\C)[C@@H](O)[C@@H](OC)C(=O)[C@H](C)C[C@H](C)/C=C/C=C/C=C/1C [Everolimus] (top concentration tested 99.976 nM) | 76.4% | 95.4%
25 | Nc1nc(F)nc2c1ncn2[C@@H]1O[C@H](CO)[C@@H](O)[C@@H]1O [Fludarabine] (top concentration tested 9999.9 nM) | 71% | 59.4%
26 | C[C@]12CC[C@@H]3c4ccc(O)cc4C[C@@H](CCCCCCCCC[S+]([O-])CCCC(F)(F)C(F)(F)F)[C@H]3[C@@H]1CC[C@@H]2O (some centres not stated) [Fulvestrant] (top concentration tested 1000 nM) | 75.9% | 91.1%
27 | CN(C)c1ccccc1CN1CCCN(Cc2ccccc2N(C)C)C1c1ccncc1 [GANT61] (top concentration tested 10000 nM) | 70.7% | 83.1%
28 | Cc1ccc(NC(=O)c2ccc(CN3CCN(C)CC3)cc2)cc1Nc1nccc(-c2cccnc2)n1 [Imatinib] (top concentration tested 1000 nM) | 71% | 95.9%
29 | CN[C@@H](C)C(=O)N[C@H](C(=O)N1CCC[C@H]1c1nc(C(=O)c2ccc(F)cc2)cs1)C1CCCCC1 [LCL161] (top concentration tested 10000 nM) | 69.3% | 86.1%
30 | Nc1cccc2c1CN(C1CCC(=O)NC1=O)C2=O (configuration not stated) [Lenalidomide] (top concentration tested 10000 nM) | 84.3% | 89.9%
31 | O=C(O)c1nn(Cc2ccc(Cl)cc2Cl)c2ccccc12 [Lonidamine] (top concentration tested 10000 nM) | 77.4% | 86.4%
